Measured values reported in the kinase profiling compilation of Christmann-Franck et al. (2016).

Columns and labels:
Experiment in all cases: radiometric filter-binding kinase assay
EPHA4 (human) = EPHA4 (human) (UniProt P54764); conditions: compound 1.0 µM
PAK7 (human) = PAK7 (human) (UniProt Q9P286)
MAPK1 (human) = MAPK1 (human) (UniProt P28482)
IKBKE (human) = IKBKE (human) (UniProt Q14164)
[1] = system: RPS6KB1 (human), P23443 [T412E]
RPS6KA3 KD1 KD2 (human) = RPS6KA3 KD1 KD2 (human) (UniProt P51812); conditions: compound 0.1 µM
NEK2 (human) = NEK2 (human) (UniProt P51955)
RPS6KA1 KD1 KD2 (human) = RPS6KA1 KD1 KD2 (human) (UniProt Q15418)
Sequence of RPS6KA1 KD1 KD2 (human) (Q15418 whole entry, looked up): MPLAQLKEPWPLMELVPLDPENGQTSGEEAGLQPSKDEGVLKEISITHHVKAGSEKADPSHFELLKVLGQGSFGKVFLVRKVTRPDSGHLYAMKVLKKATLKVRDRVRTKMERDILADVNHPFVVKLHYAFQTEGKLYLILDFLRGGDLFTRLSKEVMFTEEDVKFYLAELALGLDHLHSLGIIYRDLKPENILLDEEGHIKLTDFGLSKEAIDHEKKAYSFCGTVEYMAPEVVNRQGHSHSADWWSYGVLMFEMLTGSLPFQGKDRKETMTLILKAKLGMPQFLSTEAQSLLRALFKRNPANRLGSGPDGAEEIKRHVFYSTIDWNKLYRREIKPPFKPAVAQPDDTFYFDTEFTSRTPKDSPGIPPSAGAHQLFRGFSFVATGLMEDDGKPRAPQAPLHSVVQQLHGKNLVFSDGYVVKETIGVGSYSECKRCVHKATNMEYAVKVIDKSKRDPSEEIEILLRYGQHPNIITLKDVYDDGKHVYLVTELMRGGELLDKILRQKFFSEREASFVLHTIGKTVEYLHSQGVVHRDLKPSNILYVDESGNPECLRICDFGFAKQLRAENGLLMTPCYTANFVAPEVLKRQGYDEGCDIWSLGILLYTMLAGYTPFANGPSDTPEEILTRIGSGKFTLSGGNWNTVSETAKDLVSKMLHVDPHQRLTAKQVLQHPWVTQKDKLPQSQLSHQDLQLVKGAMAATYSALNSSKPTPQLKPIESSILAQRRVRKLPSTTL

CSNK1D (human) = CSNK1D (human) (UniProt P48730)
MAPK14 (human) = MAPK14 (human) (UniProt Q16539)
PRKAA1 or PRKAA2 (rat) = conditions: accession and sequence are those of the human protein
RPS6KA5 KD1 KD2 (human) = RPS6KA5 KD1 KD2 (human) (UniProt O75582)
CHEK2 (human) = CHEK2 (human) (UniProt O96017)
MAPKAPK3 (human) = MAPKAPK3 (human) (UniProt Q16644)
MKNK2 (human) = MKNK2 (human) (UniProt Q9HBH9)
FLT1 (human) = FLT1 (human) (UniProt P17948)
Sequence of FLT1 (human) (P17948 whole entry, looked up): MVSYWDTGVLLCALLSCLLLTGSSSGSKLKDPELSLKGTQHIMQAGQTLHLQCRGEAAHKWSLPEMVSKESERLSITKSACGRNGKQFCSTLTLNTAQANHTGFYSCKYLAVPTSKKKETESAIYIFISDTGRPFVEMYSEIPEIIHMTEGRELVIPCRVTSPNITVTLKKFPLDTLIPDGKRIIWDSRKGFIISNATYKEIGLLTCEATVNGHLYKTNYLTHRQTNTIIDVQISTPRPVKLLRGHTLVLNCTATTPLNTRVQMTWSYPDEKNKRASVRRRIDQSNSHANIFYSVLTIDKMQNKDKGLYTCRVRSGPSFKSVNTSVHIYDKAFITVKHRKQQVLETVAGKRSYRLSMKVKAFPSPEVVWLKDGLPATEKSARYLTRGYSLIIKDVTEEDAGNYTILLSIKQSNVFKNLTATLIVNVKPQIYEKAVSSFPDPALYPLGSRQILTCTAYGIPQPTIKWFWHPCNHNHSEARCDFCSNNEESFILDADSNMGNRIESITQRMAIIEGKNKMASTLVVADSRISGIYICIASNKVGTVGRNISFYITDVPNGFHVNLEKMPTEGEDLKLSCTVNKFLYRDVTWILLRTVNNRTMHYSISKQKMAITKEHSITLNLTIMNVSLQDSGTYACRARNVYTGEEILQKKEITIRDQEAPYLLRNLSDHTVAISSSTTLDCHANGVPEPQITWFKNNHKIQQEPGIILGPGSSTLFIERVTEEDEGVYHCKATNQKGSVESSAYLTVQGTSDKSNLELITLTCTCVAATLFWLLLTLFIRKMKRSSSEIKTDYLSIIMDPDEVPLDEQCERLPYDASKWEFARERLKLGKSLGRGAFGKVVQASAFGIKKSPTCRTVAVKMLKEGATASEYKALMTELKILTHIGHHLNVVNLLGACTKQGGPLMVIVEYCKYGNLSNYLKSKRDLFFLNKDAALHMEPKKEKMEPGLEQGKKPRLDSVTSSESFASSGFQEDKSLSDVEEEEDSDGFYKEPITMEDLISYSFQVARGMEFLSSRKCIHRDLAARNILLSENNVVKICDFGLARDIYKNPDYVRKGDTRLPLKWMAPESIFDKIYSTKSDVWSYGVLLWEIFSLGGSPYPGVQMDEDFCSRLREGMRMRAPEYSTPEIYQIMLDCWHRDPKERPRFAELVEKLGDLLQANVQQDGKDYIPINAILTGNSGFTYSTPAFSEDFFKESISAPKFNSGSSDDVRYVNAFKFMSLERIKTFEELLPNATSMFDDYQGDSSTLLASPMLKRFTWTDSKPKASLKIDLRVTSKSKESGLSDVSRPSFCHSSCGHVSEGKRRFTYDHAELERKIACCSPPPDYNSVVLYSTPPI

SYK (human) = SYK (human) (UniProt P43405)
PRKACA (human) = PRKACA (human) (UniProt P17612)
INSRR (human) = INSRR (human) (UniProt P14616)
CSK (human) = CSK (human) (UniProt P41240)
EPHB1 (human) = EPHB1 (human) (UniProt P54762)
Sequence of EPHB1 (human) (P54762 whole entry, looked up): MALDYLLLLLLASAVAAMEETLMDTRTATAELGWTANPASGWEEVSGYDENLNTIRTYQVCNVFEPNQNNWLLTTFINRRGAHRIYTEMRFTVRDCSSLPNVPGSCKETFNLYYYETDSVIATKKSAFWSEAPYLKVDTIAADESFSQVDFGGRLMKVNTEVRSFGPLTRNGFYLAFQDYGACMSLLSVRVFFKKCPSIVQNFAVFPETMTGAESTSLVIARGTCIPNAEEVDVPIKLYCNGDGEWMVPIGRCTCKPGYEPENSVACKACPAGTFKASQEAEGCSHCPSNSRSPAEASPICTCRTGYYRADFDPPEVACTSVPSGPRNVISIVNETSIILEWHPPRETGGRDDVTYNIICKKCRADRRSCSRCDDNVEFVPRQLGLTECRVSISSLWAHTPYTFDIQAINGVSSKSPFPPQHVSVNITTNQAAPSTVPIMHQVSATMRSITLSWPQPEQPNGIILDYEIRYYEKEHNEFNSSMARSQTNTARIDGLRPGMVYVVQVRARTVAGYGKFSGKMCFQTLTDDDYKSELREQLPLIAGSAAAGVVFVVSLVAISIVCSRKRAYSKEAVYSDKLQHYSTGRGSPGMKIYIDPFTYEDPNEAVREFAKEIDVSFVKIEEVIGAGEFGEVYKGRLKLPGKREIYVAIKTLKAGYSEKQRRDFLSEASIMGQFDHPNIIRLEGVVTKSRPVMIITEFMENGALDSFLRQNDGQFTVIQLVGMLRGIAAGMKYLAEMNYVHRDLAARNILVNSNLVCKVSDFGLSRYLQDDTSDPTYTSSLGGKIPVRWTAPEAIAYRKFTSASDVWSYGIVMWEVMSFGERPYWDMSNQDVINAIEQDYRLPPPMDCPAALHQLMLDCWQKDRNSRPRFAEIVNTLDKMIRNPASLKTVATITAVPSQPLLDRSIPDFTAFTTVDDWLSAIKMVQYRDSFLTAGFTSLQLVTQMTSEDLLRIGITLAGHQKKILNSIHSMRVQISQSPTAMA

BTK (human) = BTK (human) (UniProt Q06187)
EPHB4 (human) = EPHB4 (human) (UniProt P54760)
NEK6 (human) = NEK6 (human) (UniProt Q9HC98)
Sequence of NEK6 (human) (Q9HC98 whole entry, looked up): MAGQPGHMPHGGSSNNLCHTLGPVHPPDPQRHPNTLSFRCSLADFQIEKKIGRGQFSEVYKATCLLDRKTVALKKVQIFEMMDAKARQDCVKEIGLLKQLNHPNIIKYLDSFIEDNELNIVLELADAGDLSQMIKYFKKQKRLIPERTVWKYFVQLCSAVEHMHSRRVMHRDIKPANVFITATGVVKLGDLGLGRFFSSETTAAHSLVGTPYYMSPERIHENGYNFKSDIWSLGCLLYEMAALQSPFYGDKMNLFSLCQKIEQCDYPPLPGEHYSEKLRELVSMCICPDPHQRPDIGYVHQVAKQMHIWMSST

IKBKB (human) = IKBKB (human) (UniProt O14920)
MAPK15 (human) = MAPK15 (human) (UniProt Q8TD08)
PLK1 (human) = PLK1 (human) (UniProt P53350)
[2] = system: AKT2 (human), P31751 [S474D]
TTK (human) = TTK (human) (UniProt P33981)
PIM2 (human) = PIM2 (human) (UniProt Q9P1W9)
MAP2K1 (human) = MAP2K1 (human) (UniProt Q02750)
SRC (human) = SRC (human) (UniProt P12931)
CDK2 CCNA2 (human) = CDK2 CCNA2 (human) (UniProt P20248+P24941)
RIPK2 (human) = RIPK2 (human) (UniProt O43353)
MAPK3 (human) = MAPK3 (human) (UniProt P27361)
Sequence of MAPK3 (human) (P27361 whole entry, looked up): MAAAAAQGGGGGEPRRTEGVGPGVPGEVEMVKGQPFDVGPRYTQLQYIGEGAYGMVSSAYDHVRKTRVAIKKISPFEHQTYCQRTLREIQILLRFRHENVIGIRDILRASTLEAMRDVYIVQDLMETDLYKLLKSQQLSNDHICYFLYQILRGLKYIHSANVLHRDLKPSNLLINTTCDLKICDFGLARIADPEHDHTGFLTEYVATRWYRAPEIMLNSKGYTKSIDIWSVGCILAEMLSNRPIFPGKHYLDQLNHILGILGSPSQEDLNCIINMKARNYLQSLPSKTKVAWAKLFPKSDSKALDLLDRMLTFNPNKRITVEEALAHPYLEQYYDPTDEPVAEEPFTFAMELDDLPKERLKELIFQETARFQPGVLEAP

Sequence of RPS6KB1 (human), P23443 [T412E] (P23443 whole entry T412E, looked up): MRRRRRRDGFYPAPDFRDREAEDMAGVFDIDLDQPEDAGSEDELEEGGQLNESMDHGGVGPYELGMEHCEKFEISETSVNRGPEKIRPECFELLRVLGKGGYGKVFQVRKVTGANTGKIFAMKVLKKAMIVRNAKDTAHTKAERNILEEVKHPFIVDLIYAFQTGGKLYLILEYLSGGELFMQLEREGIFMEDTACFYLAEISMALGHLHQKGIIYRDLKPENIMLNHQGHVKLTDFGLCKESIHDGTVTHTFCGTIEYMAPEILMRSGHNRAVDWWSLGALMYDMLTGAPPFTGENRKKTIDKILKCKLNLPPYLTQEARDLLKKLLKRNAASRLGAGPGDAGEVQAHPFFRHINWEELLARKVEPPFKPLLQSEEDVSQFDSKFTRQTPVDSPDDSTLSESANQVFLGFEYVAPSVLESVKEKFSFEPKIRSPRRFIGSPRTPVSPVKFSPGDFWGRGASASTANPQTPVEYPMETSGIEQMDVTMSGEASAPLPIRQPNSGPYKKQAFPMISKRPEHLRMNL
Sequence of IKBKE (human) (Q14164 whole entry, looked up): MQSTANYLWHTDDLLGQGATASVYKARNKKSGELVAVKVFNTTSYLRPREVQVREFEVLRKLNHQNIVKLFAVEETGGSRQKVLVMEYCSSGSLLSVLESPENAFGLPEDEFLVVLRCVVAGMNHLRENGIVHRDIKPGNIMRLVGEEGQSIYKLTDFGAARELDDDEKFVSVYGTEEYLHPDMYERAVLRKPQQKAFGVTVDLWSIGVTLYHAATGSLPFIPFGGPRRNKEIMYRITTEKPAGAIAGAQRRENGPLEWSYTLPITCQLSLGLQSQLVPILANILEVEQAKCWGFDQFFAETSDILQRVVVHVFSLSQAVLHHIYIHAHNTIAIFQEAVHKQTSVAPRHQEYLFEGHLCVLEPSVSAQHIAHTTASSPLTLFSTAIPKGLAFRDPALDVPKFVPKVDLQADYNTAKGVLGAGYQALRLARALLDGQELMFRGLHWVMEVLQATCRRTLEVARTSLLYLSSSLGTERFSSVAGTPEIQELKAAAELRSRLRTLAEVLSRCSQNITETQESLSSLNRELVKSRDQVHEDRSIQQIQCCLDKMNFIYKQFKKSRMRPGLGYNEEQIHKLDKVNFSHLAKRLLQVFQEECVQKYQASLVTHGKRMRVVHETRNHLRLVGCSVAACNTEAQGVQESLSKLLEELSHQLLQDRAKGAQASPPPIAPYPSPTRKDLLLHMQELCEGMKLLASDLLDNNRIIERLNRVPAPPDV

For `CCn1c(-c2nonc2N)nc2cncc(CNC3CCNCC3)c21`, the residual activity (EPHA4 (human)) was 109%, the residual activity (PAK7 (human); compound 0.1 µM) was 93% and the residual activity (PAK7 (human); compound 1.0 µM) was 100%. For the same compound, the residual activity (PAK7 (human); compound 10.0 µM) was 98%, the residual activity (MAPK1 (human); compound 0.1 µM) was 113% and the residual activity (MAPK1 (human); compound 1.0 µM) was 117%. The residual activity (MAPK1 (human); compound 10.0 µM) was 115%, the residual activity (IKBKE (human); compound 0.1 µM) was 111% and the residual activity (IKBKE (human); compound 1.0 µM) was 110%. It also gave a residual activity (IKBKE (human); compound 10.0 µM) of 115%, a residual activity ([1]; compound 0.1 µM) of 16% and a residual activity ([1]; compound 1.0 µM) of 5%. The residual activity ([1]; compound 10.0 µM) was 4%, the residual activity (RPS6KA3 KD1 KD2 (human)) was 94% and the residual activity (NEK2 (human); compound 0.1 µM) was 98%. It also gave a residual activity (NEK2 (human); compound 1.0 µM) of 93%, a residual activity (NEK2 (human); compound 10.0 µM) of 106% and a residual activity (RPS6KA1 KD1 KD2 (human); compound 0.1 µM) of 33%. For the same compound, the residual activity (RPS6KA1 KD1 KD2 (human); compound 1.0 µM) was 15%, the residual activity (RPS6KA1 KD1 KD2 (human); compound 10.0 µM) was 9% and the residual activity (CSNK1D (human); compound 0.1 µM) was 102%. The residual activity (CSNK1D (human); compound 1.0 µM) was 91%, the residual activity (CSNK1D (human); compound 10.0 µM) was 61% and the residual activity (MAPK14 (human); compound 0.1 µM) was 101%. For the same compound, the residual activity (MAPK14 (human); compound 1.0 µM) was 95%, the residual activity (MAPK14 (human); compound 10.0 µM) was 94% and the residual activity (PRKAA1 or PRKAA2 (rat); compound 0.1 µM) was 95%. The residual activity (PRKAA1 or PRKAA2 (rat); compound 1.0 µM) was 82%, the residual activity (PRKAA1 or PRKAA2 (rat); compound 10.0 µM) was 29% and the residual activity (RPS6KA5 KD1 KD2 (human); compound 0.1 µM) was 22%. The residual activity (RPS6KA5 KD1 KD2 (human); compound 1.0 µM) was 5%, the residual activity (RPS6KA5 KD1 KD2 (human); compound 10.0 µM) was 1% and the residual activity (CHEK2 (human); compound 0.1 µM) was 94%. The residual activity (CHEK2 (human); compound 1.0 µM) was 89%, the residual activity (CHEK2 (human); compound 10.0 µM) was 69% and the residual activity (MAPKAPK3 (human); compound 0.1 µM) was 98%. For the same compound, the residual activity (MAPKAPK3 (human); compound 1.0 µM) was 101%, the residual activity (MAPKAPK3 (human); compound 10.0 µM) was 97% and the residual activity (MKNK2 (human); compound 0.1 µM) was 110%. The residual activity (MKNK2 (human); compound 1.0 µM) was 116%, the residual activity (MKNK2 (human); compound 10.0 µM) was 77% and the residual activity (FLT1 (human); compound 0.1 µM) was 103%. It also gave a residual activity (FLT1 (human); compound 1.0 µM) of 105%, a residual activity (FLT1 (human); compound 10.0 µM) of 83% and a residual activity (SYK (human); compound 0.1 µM) of 106%. For the same compound, the residual activity (SYK (human); compound 1.0 µM) was 101%, the residual activity (SYK (human); compound 10.0 µM) was 79% and the residual activity (PRKACA (human); compound 0.1 µM) was 79%. For the same compound, the residual activity (PRKACA (human); compound 1.0 µM) was 33%, the residual activity (PRKACA (human); compound 10.0 µM) was 8% and the residual activity (INSRR (human); compound 0.1 µM) was 71%. It also gave a residual activity (INSRR (human); compound 1.0 µM) of 49%, a residual activity (INSRR (human); compound 10.0 µM) of 21% and a residual activity (CSK (human); compound 0.1 µM) of 89%. For the same compound, the residual activity (CSK (human); compound 1.0 µM) was 95%, the residual activity (CSK (human); compound 10.0 µM) was 98% and the residual activity (EPHB1 (human); compound 0.1 µM) was 92%. The residual activity (EPHB1 (human); compound 1.0 µM) was 99%, the residual activity (EPHB1 (human); compound 10.0 µM) was 82% and the residual activity (BTK (human); compound 0.1 µM) was 92%. It also gave a residual activity (BTK (human); compound 1.0 µM) of 93%, a residual activity (BTK (human); compound 10.0 µM) of 112% and a residual activity (EPHB4 (human); compound 0.1 µM) of 105%. It also gave a residual activity (EPHB4 (human); compound 1.0 µM) of 105%, a residual activity (EPHB4 (human); compound 10.0 µM) of 94% and a residual activity (NEK6 (human); compound 0.1 µM) of 103%. The residual activity (NEK6 (human); compound 1.0 µM) was 101%, the residual activity (NEK6 (human); compound 10.0 µM) was 102% and the residual activity (IKBKB (human); compound 0.1 µM) was 98%. The residual activity (IKBKB (human); compound 1.0 µM) was 97%, the residual activity (IKBKB (human); compound 10.0 µM) was 100% and the residual activity (MAPK15 (human); compound 0.1 µM) was 95%. The residual activity (MAPK15 (human); compound 1.0 µM) was 62%, the residual activity (MAPK15 (human); compound 10.0 µM) was 27% and the residual activity (PLK1 (human); compound 0.1 µM) was 83%. It also gave a residual activity (PLK1 (human); compound 1.0 µM) of 60%, a residual activity (PLK1 (human); compound 10.0 µM) of 41% and a residual activity ([2]; compound 0.1 µM) of 101%. For the same compound, the residual activity ([2]; compound 1.0 µM) was 59%, the residual activity ([2]; compound 10.0 µM) was 38% and the residual activity (TTK (human); compound 0.1 µM) was 83%. The residual activity (TTK (human); compound 1.0 µM) was 84%, the residual activity (TTK (human); compound 10.0 µM) was 65% and the residual activity (PIM2 (human); compound 1.0 µM) was 110%. For the same compound, the residual activity (PIM2 (human); compound 10.0 µM) was 69%, the residual activity (MAP2K1 (human); compound 0.1 µM) was 85% and the residual activity (MAP2K1 (human); compound 1.0 µM) was 103%. For the same compound, the residual activity (MAP2K1 (human); compound 10.0 µM) was 78%, the residual activity (SRC (human); compound 0.1 µM) was 110% and the residual activity (SRC (human); compound 1.0 µM) was 120%. For the same compound, the residual activity (SRC (human); compound 10.0 µM) was 102%, the residual activity (CDK2 CCNA2 (human); compound 0.1 µM) was 83% and the residual activity (CDK2 CCNA2 (human); compound 1.0 µM) was 81%. The residual activity (CDK2 CCNA2 (human); compound 10.0 µM) was 56%, the residual activity (RIPK2 (human); compound 0.1 µM) was 86% and the residual activity (RIPK2 (human); compound 1.0 µM) was 77%. It also gave a residual activity (RIPK2 (human); compound 10.0 µM) of 77%, a residual activity (MAPK3 (human); compound 0.1 µM) of 95% and a residual activity (MAPK3 (human); compound 1.0 µM) of 98%. For the same compound, the residual activity (MAPK3 (human); compound 10.0 µM) was 97%.
